Test results as given in ChEMBL document CHEMBL1201862, “PubChem BioAssay data set” (2004).
Active and inactive are the calls of the source.

What was measured:
Format in all cases: functional
[1] = (§1) Counterscreen for antagonists of the orexin 1 receptor (OX1R; HCRTR1): Fluorescence-based cell-based high throughput dose response assay to identify antagonists of the parental CHO cell line. [Related pubchem assays (depositor defined):AID434989, AID435008, AID463079, AID485270, AID492963, AID492964, AID492965, AID493232, AID504699, AID504701]
CHO-K1 = assay: as §1, with “Homogeneous time resolved fluorescence (HTRF)-based” for “Fluorescence-based”, “cell-based” for “cell-based high throughput”, “CHO-K1” for “CHO”; conditions: Cricetulus griseus;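 further: potency for inhibition of ATP-stimulated IP1 production as antagonists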
[2] = molecular target: T1, Orexin/Hypocretin receptor type 1 (Homo sapiens, UniProt O43613); assay: Homogeneous Time Resolved Fluorescence (HTRF)-based cell-based high throughput dose response assay for antagonists of the orexin 1 receptor (OX1R; HCRTR1). [Related pubchem assays (depositor defined):AID434989, AID435008, AID463079, AID485270, AID492963, AID492964, AID492965, AID493232, AID504717, AID504718]
T1 sequence (O43613 whole entry): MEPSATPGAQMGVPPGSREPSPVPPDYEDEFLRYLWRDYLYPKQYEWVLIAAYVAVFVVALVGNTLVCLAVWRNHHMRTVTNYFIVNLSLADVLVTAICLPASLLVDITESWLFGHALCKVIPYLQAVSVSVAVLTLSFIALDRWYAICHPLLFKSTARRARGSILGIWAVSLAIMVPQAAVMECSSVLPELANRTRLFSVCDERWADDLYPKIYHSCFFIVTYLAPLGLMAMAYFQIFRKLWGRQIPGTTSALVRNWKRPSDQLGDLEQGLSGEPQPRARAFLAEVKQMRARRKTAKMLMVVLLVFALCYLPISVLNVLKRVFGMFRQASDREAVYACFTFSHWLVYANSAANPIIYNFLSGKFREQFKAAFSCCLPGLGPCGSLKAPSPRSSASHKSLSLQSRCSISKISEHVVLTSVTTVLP

Orexin receptor type 2 [3] = molecular target: T2, Orexin receptor type 2 (Homo sapiens, UniProt O43614); assay: Counterscreen assay for antagonists of the orexin 1 receptor (OX1R; HCRTR1): Fluorescence-based cell-based dose response assay for antagonists of the orexin 2 receptor (OX2R; HCRTR2), run by assay provider.
T2 sequence (O43614 whole entry): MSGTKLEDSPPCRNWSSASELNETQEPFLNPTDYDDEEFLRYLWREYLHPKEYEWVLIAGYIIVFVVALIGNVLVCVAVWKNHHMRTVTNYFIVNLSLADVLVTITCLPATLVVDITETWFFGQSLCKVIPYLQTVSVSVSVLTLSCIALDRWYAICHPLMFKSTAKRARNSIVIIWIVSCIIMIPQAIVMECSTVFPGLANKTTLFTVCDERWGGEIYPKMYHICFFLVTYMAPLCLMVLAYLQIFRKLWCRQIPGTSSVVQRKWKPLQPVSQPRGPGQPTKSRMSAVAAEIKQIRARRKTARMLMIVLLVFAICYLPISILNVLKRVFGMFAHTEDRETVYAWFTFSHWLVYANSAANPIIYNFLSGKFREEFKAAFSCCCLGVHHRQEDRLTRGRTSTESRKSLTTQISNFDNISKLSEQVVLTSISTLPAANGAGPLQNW

[4] = molecular target: T1, Orexin/Hypocretin receptor type 1; assay: Fluorescence-based cell-based high throughput dose response assay for antagonists of the orexin 1 receptor (OX1R; HCRTR1). [Related pubchem assays (depositor defined):AID434989, AID435008, AID463079, AID485270, AID492963, AID492964, AID492965, AID493232, AID504717, AID504718]
Orexin receptor type 2 [5] = molecular target: T2, Orexin receptor type 2; assay: Counterscreen assay for antagonists of the orexin 1 receptor (OX1R; HCRTR1): Homogeneous Time Resolved Fluorescence (HTRF)-based cell-based dose response assay for antagonists of the orexin 2 receptor (OX2R; HCRTR2), run by assay provider.
[6] = molecular target: T3, Sentrin-specific protease 8 (Homo sapiens, UniProt Q96LD8); assay: inhibition of human SENP8 cleavage activity – biochemical, luminescence, SAR follow-up (AID 504501)
T3 sequence (Q96LD8 whole entry): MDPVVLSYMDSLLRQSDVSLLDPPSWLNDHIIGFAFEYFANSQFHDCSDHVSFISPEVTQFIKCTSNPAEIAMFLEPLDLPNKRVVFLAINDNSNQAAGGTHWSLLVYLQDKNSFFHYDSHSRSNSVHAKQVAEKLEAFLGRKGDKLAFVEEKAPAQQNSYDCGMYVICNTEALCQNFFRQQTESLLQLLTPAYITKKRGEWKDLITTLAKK

Caspase-3 = molecular target: T4, Caspase-3 (Homo sapiens, UniProt P42574); assay: SAR Analysis of small molecule inhibitors of Sentrin-specific proteases (SENPs) using a Caspase-3 Selectivity assay. [Related pubchem assays (depositor defined):AID2540, AID2599, AID434973, AID489001]
T4 sequence (P42574 whole entry): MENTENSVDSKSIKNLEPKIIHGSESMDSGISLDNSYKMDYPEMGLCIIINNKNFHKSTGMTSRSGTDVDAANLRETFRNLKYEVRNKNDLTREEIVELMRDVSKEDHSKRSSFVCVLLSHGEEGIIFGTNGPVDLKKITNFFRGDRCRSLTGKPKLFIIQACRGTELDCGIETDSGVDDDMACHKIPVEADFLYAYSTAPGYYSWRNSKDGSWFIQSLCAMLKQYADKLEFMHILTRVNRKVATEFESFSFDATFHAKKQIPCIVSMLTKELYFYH

[7] = molecular target: T5, Sentrin-specific protease 7 (Homo sapiens, UniProt Q9BQF6); assay: inhibition of human SENP7 cleavage activity – biochemical, luminescence, SAR follow-up (AID 504497)
T5 sequence (Q9BQF6 whole entry): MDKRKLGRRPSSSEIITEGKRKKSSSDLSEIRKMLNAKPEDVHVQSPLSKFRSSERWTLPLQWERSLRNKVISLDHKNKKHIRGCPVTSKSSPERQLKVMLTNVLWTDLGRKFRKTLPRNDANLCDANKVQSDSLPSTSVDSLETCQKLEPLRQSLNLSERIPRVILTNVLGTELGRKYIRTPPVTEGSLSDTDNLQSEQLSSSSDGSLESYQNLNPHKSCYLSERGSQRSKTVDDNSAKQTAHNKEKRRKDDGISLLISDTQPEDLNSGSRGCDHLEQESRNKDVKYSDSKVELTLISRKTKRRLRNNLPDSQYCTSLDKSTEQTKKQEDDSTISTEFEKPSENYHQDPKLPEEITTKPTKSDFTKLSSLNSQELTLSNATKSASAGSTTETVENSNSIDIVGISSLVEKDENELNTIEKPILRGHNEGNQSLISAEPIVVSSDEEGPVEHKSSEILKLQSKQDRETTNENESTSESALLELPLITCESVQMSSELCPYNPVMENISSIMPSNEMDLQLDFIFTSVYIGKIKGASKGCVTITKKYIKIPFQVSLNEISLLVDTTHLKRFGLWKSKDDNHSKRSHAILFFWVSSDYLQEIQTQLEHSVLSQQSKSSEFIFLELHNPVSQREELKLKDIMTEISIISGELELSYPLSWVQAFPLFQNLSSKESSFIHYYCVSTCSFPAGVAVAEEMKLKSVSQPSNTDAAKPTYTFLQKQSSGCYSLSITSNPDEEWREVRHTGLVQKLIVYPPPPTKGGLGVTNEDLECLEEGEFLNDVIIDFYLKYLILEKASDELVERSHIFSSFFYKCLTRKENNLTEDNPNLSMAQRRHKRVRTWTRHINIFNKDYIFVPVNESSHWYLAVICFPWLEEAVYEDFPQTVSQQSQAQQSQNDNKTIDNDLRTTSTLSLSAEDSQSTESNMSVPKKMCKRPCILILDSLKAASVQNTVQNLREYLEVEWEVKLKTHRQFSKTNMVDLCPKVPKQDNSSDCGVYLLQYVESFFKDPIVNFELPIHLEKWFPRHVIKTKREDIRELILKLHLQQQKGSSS

[8] = molecular target: T6, Sentrin-specific protease 6 (Homo sapiens, UniProt Q9GZR1); assay: SAR Analysis of small molecule inhibitors of Sentrin-specific protease 6 (SENP6) using a Luminescent assay. [Related pubchem assays (depositor defined):AID2582, AID2599]
T6 sequence (Q9GZR1 whole entry): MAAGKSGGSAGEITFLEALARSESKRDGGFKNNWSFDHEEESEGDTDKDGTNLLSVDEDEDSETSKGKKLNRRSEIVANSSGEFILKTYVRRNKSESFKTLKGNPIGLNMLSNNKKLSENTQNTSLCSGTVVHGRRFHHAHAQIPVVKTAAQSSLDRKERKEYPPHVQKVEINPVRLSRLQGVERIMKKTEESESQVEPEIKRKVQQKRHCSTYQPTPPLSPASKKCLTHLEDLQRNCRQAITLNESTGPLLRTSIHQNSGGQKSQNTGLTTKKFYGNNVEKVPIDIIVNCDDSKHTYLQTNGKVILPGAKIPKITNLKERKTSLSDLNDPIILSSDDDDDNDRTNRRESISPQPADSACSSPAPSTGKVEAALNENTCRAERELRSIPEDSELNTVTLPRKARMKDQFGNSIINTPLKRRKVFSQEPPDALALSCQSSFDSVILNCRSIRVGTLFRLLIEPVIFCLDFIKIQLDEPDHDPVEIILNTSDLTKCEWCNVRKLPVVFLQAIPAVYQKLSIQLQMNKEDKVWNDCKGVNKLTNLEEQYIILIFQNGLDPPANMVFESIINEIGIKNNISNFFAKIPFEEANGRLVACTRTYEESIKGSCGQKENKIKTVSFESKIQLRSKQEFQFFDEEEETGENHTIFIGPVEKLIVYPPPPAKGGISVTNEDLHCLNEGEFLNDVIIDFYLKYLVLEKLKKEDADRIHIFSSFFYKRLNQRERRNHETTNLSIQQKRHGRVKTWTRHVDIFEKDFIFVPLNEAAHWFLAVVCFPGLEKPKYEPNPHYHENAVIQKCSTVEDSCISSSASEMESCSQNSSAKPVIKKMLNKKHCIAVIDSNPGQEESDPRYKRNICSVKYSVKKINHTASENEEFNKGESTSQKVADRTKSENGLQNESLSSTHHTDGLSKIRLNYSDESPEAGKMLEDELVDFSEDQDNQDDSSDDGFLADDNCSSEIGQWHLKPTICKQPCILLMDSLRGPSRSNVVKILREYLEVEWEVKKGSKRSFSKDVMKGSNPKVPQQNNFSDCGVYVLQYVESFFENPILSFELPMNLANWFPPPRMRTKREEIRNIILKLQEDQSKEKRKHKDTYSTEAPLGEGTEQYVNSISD

[9] = molecular target: Vascular endothelial growth factor receptor 1 (Homo sapiens, UniProt P17948);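 further: measured within a kinome-wide profiling panel, FLT1 as the panel member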
[10] = molecular target: Receptor-type tyrosine-protein kinase FLT3 (Homo sapiens, UniProt P36888);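 further: FLT3 was tested as one member of a kinome-wide kinase panel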
Sequence of Receptor-type tyrosine-protein kinase FLT3 (P36888 whole entry): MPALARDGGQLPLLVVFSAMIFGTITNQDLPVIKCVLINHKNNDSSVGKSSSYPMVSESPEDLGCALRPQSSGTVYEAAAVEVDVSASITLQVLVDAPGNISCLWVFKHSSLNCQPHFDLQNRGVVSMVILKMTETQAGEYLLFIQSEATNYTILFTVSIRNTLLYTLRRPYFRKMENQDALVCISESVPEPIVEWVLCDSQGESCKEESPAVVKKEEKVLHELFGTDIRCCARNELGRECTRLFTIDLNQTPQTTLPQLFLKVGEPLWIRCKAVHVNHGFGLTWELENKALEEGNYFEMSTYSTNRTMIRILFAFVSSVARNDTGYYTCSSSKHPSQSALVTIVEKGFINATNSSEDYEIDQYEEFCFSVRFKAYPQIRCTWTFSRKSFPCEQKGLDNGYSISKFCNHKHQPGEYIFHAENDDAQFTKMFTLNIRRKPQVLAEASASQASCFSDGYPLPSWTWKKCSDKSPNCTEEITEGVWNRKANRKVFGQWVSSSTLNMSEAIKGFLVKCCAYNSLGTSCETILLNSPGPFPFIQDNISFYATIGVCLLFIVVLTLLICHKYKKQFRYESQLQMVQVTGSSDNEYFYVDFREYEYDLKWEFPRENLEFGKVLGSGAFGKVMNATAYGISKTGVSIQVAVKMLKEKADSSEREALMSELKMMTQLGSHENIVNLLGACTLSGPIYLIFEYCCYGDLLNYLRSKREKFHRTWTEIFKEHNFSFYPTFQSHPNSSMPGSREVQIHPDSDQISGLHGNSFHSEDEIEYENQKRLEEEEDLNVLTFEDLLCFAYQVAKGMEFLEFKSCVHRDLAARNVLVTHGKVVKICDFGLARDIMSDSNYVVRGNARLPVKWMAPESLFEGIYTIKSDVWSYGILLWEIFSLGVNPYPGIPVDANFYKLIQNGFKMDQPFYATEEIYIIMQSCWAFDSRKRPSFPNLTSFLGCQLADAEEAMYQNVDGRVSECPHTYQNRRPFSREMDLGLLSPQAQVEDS

[11] = molecular target: Tyrosine-protein kinase Fyn (Homo sapiens, UniProt P06241)
[12] = molecular target: Tyrosine-protein kinase Lyn (Homo sapiens, UniProt P07948);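 further: lyn as one member of a kinase panel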
[13] = molecular target: Tyrosine-protein kinase ABL1 (Homo sapiens, UniProt P00519)
[14] = molecular target: Mast/stem cell growth factor receptor Kit (Homo sapiens, UniProt P10721);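 further: KIT entry within a kinase panel assay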
[15] = molecular target: Proto-oncogene tyrosine-protein kinase Src (Homo sapiens, UniProt P12931);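 further: SRC entry within a kinome-wide kinase profiling panel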
Sequence of Proto-oncogene tyrosine-protein kinase Src (P12931 2-536 limits assumed): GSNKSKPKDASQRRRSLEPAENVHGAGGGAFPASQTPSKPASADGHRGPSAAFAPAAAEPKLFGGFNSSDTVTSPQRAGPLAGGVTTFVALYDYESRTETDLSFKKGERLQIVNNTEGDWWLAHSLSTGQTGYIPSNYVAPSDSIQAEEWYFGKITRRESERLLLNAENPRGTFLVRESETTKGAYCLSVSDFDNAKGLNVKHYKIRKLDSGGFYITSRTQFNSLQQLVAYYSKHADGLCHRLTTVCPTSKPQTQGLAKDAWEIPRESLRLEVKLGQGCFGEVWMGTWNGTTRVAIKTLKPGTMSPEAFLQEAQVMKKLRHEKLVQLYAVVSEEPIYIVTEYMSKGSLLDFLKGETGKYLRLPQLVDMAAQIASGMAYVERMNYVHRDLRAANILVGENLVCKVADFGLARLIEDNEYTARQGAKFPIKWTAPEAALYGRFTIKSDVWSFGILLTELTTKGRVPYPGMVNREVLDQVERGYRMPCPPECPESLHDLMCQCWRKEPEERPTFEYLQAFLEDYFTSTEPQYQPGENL

[16] = molecular target: Tyrosine-protein kinase Lck (Homo sapiens, UniProt P06239);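 further: lck was assayed as one member of a kinase panel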
Sequence of Tyrosine-protein kinase Lck (P06239 whole entry): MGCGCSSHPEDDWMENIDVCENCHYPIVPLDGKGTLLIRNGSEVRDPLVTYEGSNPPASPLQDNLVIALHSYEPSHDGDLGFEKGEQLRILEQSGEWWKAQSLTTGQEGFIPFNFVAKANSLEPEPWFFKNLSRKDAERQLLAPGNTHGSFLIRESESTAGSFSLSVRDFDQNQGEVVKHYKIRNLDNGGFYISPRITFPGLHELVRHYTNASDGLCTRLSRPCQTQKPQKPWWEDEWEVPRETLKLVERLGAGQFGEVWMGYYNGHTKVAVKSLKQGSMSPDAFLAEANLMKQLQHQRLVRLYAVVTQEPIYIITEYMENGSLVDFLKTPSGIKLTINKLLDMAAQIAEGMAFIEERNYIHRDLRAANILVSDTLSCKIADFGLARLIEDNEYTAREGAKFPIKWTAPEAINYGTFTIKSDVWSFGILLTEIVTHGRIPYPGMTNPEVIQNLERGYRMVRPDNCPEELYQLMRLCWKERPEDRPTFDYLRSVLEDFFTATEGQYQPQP

[17] = molecular target: Macrophage colony-stimulating factor 1 receptor (Homo sapiens, UniProt P07333);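 further: value comes from the Navigating the Kinome screening panel, CSF1R member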
[18] = molecular target: Vascular endothelial growth factor receptor 3 (Homo sapiens, UniProt P35916);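 further: value from a kinome-wide profiling panel, with FLT4 as the panel member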
Sequence of Vascular endothelial growth factor receptor 3 (P35916 whole entry): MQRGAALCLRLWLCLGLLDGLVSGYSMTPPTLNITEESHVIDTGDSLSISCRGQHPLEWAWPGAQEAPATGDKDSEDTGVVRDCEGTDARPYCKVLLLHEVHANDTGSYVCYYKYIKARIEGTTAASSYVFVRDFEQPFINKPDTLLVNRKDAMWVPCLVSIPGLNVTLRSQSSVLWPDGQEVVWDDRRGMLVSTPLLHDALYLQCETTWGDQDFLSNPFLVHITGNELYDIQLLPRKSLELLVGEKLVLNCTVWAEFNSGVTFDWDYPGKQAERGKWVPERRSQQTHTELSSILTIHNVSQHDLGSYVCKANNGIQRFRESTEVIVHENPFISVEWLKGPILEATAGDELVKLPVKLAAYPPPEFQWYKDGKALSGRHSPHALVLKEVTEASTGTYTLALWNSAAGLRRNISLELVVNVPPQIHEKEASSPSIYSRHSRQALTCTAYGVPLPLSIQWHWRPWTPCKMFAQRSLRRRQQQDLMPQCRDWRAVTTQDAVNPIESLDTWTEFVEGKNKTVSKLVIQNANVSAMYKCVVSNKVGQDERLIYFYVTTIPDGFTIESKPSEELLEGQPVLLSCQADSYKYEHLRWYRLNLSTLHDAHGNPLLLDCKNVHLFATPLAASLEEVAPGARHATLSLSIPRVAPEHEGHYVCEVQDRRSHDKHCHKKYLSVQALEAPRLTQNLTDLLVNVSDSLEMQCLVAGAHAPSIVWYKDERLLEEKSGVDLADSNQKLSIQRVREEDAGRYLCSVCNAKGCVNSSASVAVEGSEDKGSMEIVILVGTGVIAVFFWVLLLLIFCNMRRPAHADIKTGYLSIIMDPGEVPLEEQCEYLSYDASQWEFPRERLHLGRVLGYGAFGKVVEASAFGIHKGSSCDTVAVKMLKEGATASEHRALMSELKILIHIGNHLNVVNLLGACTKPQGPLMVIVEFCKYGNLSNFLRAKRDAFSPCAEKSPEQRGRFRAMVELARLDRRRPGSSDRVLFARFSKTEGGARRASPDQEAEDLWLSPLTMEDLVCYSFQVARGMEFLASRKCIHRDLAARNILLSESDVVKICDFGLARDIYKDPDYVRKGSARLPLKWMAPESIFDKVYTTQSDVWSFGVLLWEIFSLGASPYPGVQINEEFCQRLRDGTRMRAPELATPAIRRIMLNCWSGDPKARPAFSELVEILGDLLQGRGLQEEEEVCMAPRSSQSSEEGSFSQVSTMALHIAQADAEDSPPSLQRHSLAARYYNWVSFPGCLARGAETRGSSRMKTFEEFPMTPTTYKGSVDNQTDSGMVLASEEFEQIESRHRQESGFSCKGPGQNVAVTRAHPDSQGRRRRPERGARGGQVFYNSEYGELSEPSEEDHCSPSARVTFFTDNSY

[19] = molecular target: Tyrosine-protein kinase Blk (Homo sapiens, UniProt P51451);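 further: obtained as one member of a kinome-wide kinase assay panel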
[20] = molecular target: Vascular endothelial growth factor receptor 2 (Homo sapiens, UniProt P35968)
Sequence of Vascular endothelial growth factor receptor 2 (P35968 whole entry): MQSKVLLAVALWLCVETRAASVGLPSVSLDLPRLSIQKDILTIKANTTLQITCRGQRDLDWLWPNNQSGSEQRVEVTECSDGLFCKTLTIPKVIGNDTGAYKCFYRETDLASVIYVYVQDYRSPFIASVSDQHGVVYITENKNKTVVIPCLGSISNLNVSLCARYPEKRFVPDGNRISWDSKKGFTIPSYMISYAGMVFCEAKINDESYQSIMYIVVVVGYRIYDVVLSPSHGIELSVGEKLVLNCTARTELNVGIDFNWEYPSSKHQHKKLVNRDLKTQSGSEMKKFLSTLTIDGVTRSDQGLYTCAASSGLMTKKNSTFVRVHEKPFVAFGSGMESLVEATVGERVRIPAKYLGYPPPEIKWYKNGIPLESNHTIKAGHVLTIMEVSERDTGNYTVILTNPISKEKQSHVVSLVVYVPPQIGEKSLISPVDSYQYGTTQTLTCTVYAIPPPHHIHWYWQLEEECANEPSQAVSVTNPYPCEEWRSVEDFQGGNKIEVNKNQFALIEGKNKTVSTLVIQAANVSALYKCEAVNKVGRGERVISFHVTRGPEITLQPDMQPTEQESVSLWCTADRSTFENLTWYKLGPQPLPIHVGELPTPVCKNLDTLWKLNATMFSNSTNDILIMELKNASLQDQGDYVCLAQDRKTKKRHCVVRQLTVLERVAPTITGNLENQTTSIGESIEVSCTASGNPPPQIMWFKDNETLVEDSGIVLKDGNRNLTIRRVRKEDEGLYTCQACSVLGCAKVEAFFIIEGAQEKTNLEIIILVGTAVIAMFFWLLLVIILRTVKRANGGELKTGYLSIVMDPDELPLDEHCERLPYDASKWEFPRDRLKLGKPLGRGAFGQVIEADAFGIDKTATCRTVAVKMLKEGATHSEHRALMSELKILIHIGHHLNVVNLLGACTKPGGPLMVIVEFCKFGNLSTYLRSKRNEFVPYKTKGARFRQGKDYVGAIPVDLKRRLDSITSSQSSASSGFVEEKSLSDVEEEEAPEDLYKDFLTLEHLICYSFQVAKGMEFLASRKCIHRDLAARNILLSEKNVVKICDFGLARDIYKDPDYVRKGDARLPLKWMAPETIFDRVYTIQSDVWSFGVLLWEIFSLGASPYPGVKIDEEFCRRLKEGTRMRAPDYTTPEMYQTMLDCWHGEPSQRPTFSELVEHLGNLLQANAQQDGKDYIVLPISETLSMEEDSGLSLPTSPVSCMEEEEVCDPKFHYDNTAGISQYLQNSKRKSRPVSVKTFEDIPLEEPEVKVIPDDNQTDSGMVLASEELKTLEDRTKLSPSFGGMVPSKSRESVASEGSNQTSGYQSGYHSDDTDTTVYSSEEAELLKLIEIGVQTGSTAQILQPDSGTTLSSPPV

Question: For `CN(C)c1ccc(NC(=S)c2ccc3ccccc3n2)cc1`, which IC50 [1] is on record?
Answer: > 49.8 µM (inactive)

Question: What about the IC50 (CHO-K1) of the same compound?
Answer: > 66.3 µM (inactive)

Question: And the IC50 [2]?
Answer: 2.86 µM (active)

Question: What about the IC50 (Orexin receptor type 2 [3]) of the same compound?
Answer: > 88.8 µM (inactive)

Question: And the IC50 [4]?
Answer: 6.04 µM (active)

Question: What about the IC50 (Orexin receptor type 2 [5]) of the same compound?
Answer: > 50 µM (inactive)

Question: Which IC50 [1] does the source give for `COc1ccc2sc(-c3ccc(N(C)C)cc3)c(C#CCO)c2c1` here?
Answer: > 49.7 µM (inactive)

Question: What about the IC50 (CHO-K1) of the same compound?
Answer: > 66.2 µM (inactive)

Question: What about the IC50 [2] of the same compound?
Answer: 6.09 µM (active)

Question: And the IC50 (Orexin receptor type 2 [3])?
Answer: 37.4 µM (inactive)

Question: And the IC50 [4]?
Answer: 10.3 µM (inactive)

Question: What about the IC50 (Orexin receptor type 2 [5]) of the same compound?
Answer: > 50 µM (inactive)

Question: For `ON(O)c1ccc(N/N=C/c2c[nH]c3ccccc23)cc1`, which IC50 [6] is on record?
Answer: > 99 µM (inactive)

Question: And the IC50 (Caspase-3)?
Answer: > 99 µM (inactive)

Question: What about the IC50 [7] of the same compound?
Answer: > 99 µM (inactive)

Question: And the IC50 [8]?
Answer: > 99 µM (inactive)

Question: For `Cn1nc(N)c2c(-c3ccc(NC(=O)Nc4cccc(C(F)(F)F)c4)cc3)ccnc21`, which Ki [9] is on record?
Answer: 0.000316 µM (active)

Question: And the Ki [10]?
Answer: 0.00158 µM (active)

Question: What about the Ki [11] of the same compound?
Answer: 0.501 µM (active)

Question: And the Ki [12]?
Answer: 0.126 µM (active)

Question: What about the Ki [13] of the same compound?
Answer: 0.2 µM (active)

Question: And the Ki [14]?
Answer: 0.000794 µM (active)

Question: And the Ki [15]?
Answer: 0.794 µM (active)

Question: What about the Ki [16] of the same compound?
Answer: 0.316 µM (active)

Question: What about the Ki [17] of the same compound?
Answer: 0.00251 µM (active)

Question: And the Ki [18]?
Answer: 0.00158 µM (active)

Question: And the Ki [19]?
Answer: 0.398 µM (active)

Question: What about the Ki [20] of the same compound?
Answer: 0.000631 µM (active)
